Measured values from publication PMC12040169 (PLOS Biology, 2025).

assay: in vitro; conditions: human, hela cells, % viability

**Q.** With CN1CCN(c2nc(-c3ccco3)cn3ccnc23)CC1 [CBK038045] as the compound, how does the viability at 28.5 h, 10 µM read?
**A.** 83.7%

**Q.** With Cc1ccc(C)c(C2CCCN2C(=O)Cn2cc(C(=O)NCc3ccccc3)ccc2=O)c1 (centres unmarked) [CBK286052] as the compound, how does the viability at 28.5 h, 10 µM read?
**A.** 112%

**Q.** Which viability at 28.5 h, 10 µM does the source give for N#Cc1c2c(c(Nc3ccc(C4CCCCC4)cc3)n3c1nc1ccccc13)CCC2 [CBK263122] here?
**A.** 95.1%

**Q.** With COc1ccnc(N2CCN(C(=O)c3cnn(C)c3)CC2)n1 [CBK306125] as the compound, how does the viability at 28.5 h, 10 µM read?
**A.** 90.7%

**Q.** With CC(=O)NC(CSc1cc(C)nc2ccc(F)cc12)C(=O)O (centres unmarked) [CBK286815] as the compound, how does the viability at 28.5 h, 10 µM read?
**A.** 91.7%

**Q.** Which viability at 28.5 h, 10 µM does the source give for Cc1ccc(-c2nc3ncccc3o2)cc1NC(=O)c1ccc(-c2cccc([N+](=O)[O-])c2)o1 [CBK268548] here?
**A.** 90.7%

**Q.** For O=C(CSc1ccccc1[N+](=O)[O-])Oc1ccccc1 [CBK265501], which viability at 28.5 h, 10 µM is on record?
**A.** 106%

**Q.** Which viability at 28.5 h, 10 µM does the source give for COc1cc(C2C(C#N)=C(N)OC3=C2C(=O)CC(c2ccccc2)C3)cc(Br)c1O (centres unmarked) [CBK261587] here?
**A.** 87.1%

**Q.** With O=S(=O)(Nc1ccc(C(O)(C(F)(F)F)C(F)(F)F)cc1)c1cccc2nsnc12 [CBK062096] as the compound, how does the viability at 28.5 h, 10 µM read?
**A.** 108%

**Q.** Which viability at 28.5 h, 10 µM does the source give for CCc1ccc(OCC(=O)Nc2ccc3oc(-c4ccc(F)cc4Cl)nc3c2)cc1 [CBK265010] here?
**A.** 100%

**Q.** For Fc1ccc(-c2ccc(Nc3cccnc3)nc2)cc1Cl [CBK037642], which viability at 28.5 h, 10 µM is on record?
**A.** 93%

**Q.** Which viability at 28.5 h, 10 µM does the source give for COc1ccc(CCN2C(=O)CC(C(=O)O)S/C2=N\c2ccccc2)cc1 (centres unmarked) [CBK286606] here?
**A.** 90.6%

**Q.** For CC(C)(C)CC(C)(C)N=C(S)Nc1ccc2nc(-c3ccccn3)c(-c3ccccn3)nc2c1 [CBK265118], which viability at 28.5 h, 10 µM is on record?
**A.** 91%

**Q.** For Cn1cc(CNCCCN2CCc3ccccc32)c(-c2cccnc2)n1 [CBK306316], which viability at 28.5 h, 10 µM is on record?
**A.** 93.3%

**Q.** Which viability at 28.5 h, 10 µM does the source give for Clc1cccc(-c2cncc(N3CCN(c4ccncc4)CC3)n2)c1 [CBK066099] here?
**A.** 95.4%

**Q.** With Cc1ccc2nc(COC(=O)c3ccc(Cn4nnc5ccccc54)cc3)cn2c1 [CBK297923] as the compound, how does the viability at 28.5 h, 10 µM read?
**A.** 96.6%

**Q.** For Cc1[nH]c2ccc(F)cc2c1CC(=O)N(C)CCN(C)C [CBK282726], which viability at 28.5 h, 10 µM is on record?
**A.** 84.1%

**Q.** With N#C/C(=C/c1ccccc1OCc1cccc([N+](=O)[O-])c1)c1ccc(C(=O)O)cc1 [CBK268748] as the compound, how does the viability at 28.5 h, 10 µM read?
**A.** 96.2%

**Q.** For O=S(=O)(c1ccc(C(F)(F)F)cc1Cl)N1CCN(Cc2cccc3cccnc23)CC1 [CBK063075], which viability at 28.5 h, 10 µM is on record?
**A.** 110%

**Q.** With O=C(C[C@@H]1CCNC[C@@H]1Cc1cc(-c2ccccc2)on1)NC1CC1 [CBK289146] as the compound, how does the viability at 28.5 h, 10 µM read?
**A.** 88%

**Q.** With CCOc1ncccc1C(=O)N(Cc1nnc(-c2ccc(Cl)cc2)o1)C1CC1 [CBK296934] as the compound, how does the viability at 28.5 h, 10 µM read?
**A.** 96.3%

**Q.** Which viability at 28.5 h, 10 µM does the source give for O=C(Cn1cccc2cc(C3CCCNC3)nc1-2)N1CCCCCC1 (centres unmarked) [CBK285088] here?
**A.** 93.2%

**Q.** For N#Cc1cccc(NC(=O)NC[C@H]2C[C@@H]3CC[N@]2C[C@@H]3CN2CCCCC2)c1 [CBK288765], which viability at 28.5 h, 10 µM is on record?
**A.** 99.5%

**Q.** With O=C(O)CCc1ccc(NS(=O)(=O)c2ccc(N3CCCC3=O)cc2)cc1 [CBK299788] as the compound, how does the viability at 28.5 h, 10 µM read?
**A.** 116%

**Q.** For CN(C)CCN(Cc1ccccc1)C(=O)NCc1ccc(C#N)cc1 [CBK155097], which viability at 28.5 h, 10 µM is on record?
**A.** 89.2%

**Q.** With COc1ccc(/C=C/C(=O)c2ccc(OC)cc2OC)c(OC)c1 [CBK261666] as the compound, how does the viability at 28.5 h, 10 µM read?
**A.** 87.3%

**Q.** With NC(=O)c1c(NC(=O)COc2ccccc2[N+](=O)[O-])sc2c1CCC2 [CBK262819] as the compound, how does the viability at 28.5 h, 10 µM read?
**A.** 105%

**Q.** With CCSc1nn(CC)c2oc3c(c2c1=S)CC(C)(C)OC3 [CBK021960] as the compound, how does the viability at 28.5 h, 10 µM read?
**A.** 105%

**Q.** For CN1CCN(CCC(=O)N2c3ccccc3Sc3ccc(C(F)(F)F)cc32)CC1 [CBK278221C], which viability at 28.5 h, 10 µM is on record?
**A.** 103%

**Q.** For CC1CC(C)CN(C(=O)CN2C3CCC2CC(O)(c2ccco2)C3)C1 (centres unmarked) [CBK284032], which viability at 28.5 h, 10 µM is on record?
**A.** 92.5%

**Q.** Which viability at 28.5 h, 10 µM does the source give for O=C(NC(=S)Nc1cccc2c(O)cccc12)c1ccc(-c2ccccc2)cc1 [CBK269022] here?
**A.** 85.3%

**Q.** Which viability at 28.5 h, 10 µM does the source give for O=C(c1cc2c(s1)CCCC2)N1CCCCC1c1nnc(-c2nccc3ccccc23)o1 (centres unmarked) [CBK285577] here?
**A.** 61%

**Q.** For N#Cc1ccc(-n2cc(-c3ccc(F)cc3F)nn2)cc1 [CBK112990], which viability at 28.5 h, 10 µM is on record?
**A.** 98.3%

**Q.** For CCOc1ccc(NC(=O)C(C)O)c(NC(=O)c2ccccc2Cl)c1 (centres unmarked) [CBK269678], which viability at 28.5 h, 10 µM is on record?
**A.** 92.7%

**Q.** For CCc1cccc(CC)c1NC(=O)CN(c1cccc(Br)c1)S(C)(=O)=O [CBK265986], which viability at 28.5 h, 10 µM is on record?
**A.** 84.9%

**Q.** With O=C(c1ccco1)N1CCN(c2cc(-c3cccnc3)ncn2)CC1 [CBK037833] as the compound, how does the viability at 28.5 h, 10 µM read?
**A.** 101%

**Q.** For O=C(O)c1[nH]c(=O)[nH]c(=O)c1CN1CCCCC1 [CBK286688], which viability at 28.5 h, 10 µM is on record?
**A.** 96.8%

**Q.** With Cc1ccc(S(=O)(=O)CC(CN2CCOCC2)N2CCOCC2)cc1 (centres unmarked) [CBK264590] as the compound, how does the viability at 28.5 h, 10 µM read?
**A.** 99.1%

**Q.** With O=C(O)C1CCC(CNc2ccc([N+](=O)[O-])cn2)CC1 (centres unmarked) [CBK286626] as the compound, how does the viability at 28.5 h, 10 µM read?
**A.** 81.2%

**Q.** Which viability at 28.5 h, 10 µM does the source give for Cc1ccc(N(CC(=O)Nc2ccc(C)cc2C)S(=O)(=O)N2CCCC2)cc1 [CBK265998] here?
**A.** 110%

**Q.** For COc1cc2c(c(OC)c1OC)C(c1ccccc1C)CC(=O)N2 (centres unmarked) [CBK288205], which viability at 28.5 h, 10 µM is on record?
**A.** 109%

**Q.** Which viability at 28.5 h, 10 µM does the source give for CN1CCN(C(=O)CNS(=O)(=O)c2ccccc2)CC1 [CBK265767] here?
**A.** 92.6%

**Q.** For CC(C)[C@@H](CO)Nc1nc(-c2ccccc2Cl)cn2ccnc12 [CBK037368], which viability at 28.5 h, 10 µM is on record?
**A.** 101%

**Q.** With CN(C)c1ccc(CCNS(=O)(=O)c2ccc3[nH]c(=O)[nH]c(=O)c3c2)cc1 [CBK285938] as the compound, how does the viability at 28.5 h, 10 µM read?
**A.** 84.8%
